For this assay, the system named is male Wistar rats. Briefly: Antiinflammatory activity by air pouch technique (croton oil). The assay is classed as in vivo. The conditions noted are these: Rattus norvegicus, 192 h, 25 mg/kg/day into the pouch in 5% gum arabic, once a day for 6 days, amount of exudate on day 8 vs control group, ** p<0.01, * p<0.05, read-out: Antiinflammatory rate (%). The procedure:
The antiinflammatory activity of the compound of the invention was determined by an air pouch technique generally comforming to the method described in the literature [Proc. Soc. Exp. Biol. Med., 82 , 328-333, 1953].
The test was carried out using male Wistar rats (average body weight 200 g, 7 animals per group). A thick paper sheet with an oval cutout (2 x 5 cm) was attached to the clipped back of the animal under pentobarbital anesthesia. The skin was picked up through the central cutout and 10 ml of air was injected subcutaneously to prepare an air pouch. Then, 1 ml of 2% croton oil, as a phlogogenic agent, was injected into the pouch. The paper sheet was removed and the animal was gently rotated in order that the croton oil would be thoroughly contacted with the inner wall of the pouch.
The test compound suspended in 5% gum arabic was administered into the pouch (25 mg/kg/day) once a day for 6 days beginning the day after preparation of the pouch. The group of animals subjected to the above treatment was designated as the experimental group.
On day 8, the animals were bled to death and the amount (ml) of exudate in the pouch was measured. The antiinflammatory rate was calculated with the result in the control group ( a group not receiving the test compound) as a reference according to the following equation. [formula]

On to `CC(C)(C)c1cc(Nc2nc(CC(=O)O)cs2)cc(C(C)(C)CO)c1O` [Compound 15, 2-[3-(1,1-dimethylethyl)-5-(1,1-dimethyl-2-hydroxyethyl)-4-hydroxyphenylamino]-4-thiazolylacetic acid], for which the inhibition in vivo at 25 mg/kg/day was 32%.
With `CC(C)(C)c1cc(Nc2cnccn2)cc(C(C)(C)CO)c1O` [Compound 1, 2-(1,1-dimethylethyl)-6-(1,1-dimethyl-2-hydroxyethyl)-4-pyrazinylaminophenol], the inhibition in vivo at 25 mg/kg/day is 68%.
In the case of `CC(C)(C)c1cc(Nc2nccnn2)cc(C(C)(C)CO)c1O` [Compound 11], the inhibition in vivo at 25 mg/kg/day came to 20%.
As to `CC(=O)OCC(C)(C)c1cc(N(C(C)=O)c2nccs2)cc(C(C)(C)C)c1O` [Compound 14, 2-(2-acetoxy-1,1-dimethylethyl)-6-(1,1-dimethylethyl)-4-[N-acetyl-N-(2-thiazolyl)amino]phenol], the inhibition in vivo at 25 mg/kg/day was 51%.
For `CC(C)(C)c1cc(Nc2ncccn2)cc(C(C)(C)CO)c1O` [Compound 10], the inhibition in vivo at 25 mg/kg/day turned out to be 24%.
Take `CC(C)(C)c1cc(Nc2cccnc2)cc(C(C)(C)CO)c1O` [Compound 8]: the inhibition in vivo at 25 mg/kg/day amounted to 19%.
Regarding `CC(C)(C)c1cc(Nc2ccccc2)cc(C(C)(C)CO)c1O` [Compound 6], the inhibition in vivo at 25 mg/kg/day came to 14%.
As for `CC(=O)OCC(C)(C)c1cc(Nc2nccs2)cc(C(C)(C)C)c1O` [Compound 13, 2-(2-acetoxy-1,1-dimethylethyl)-6-(1,1-dimethylethyl)-4-(2-thiazolylamino)phenol], the inhibition in vivo at 25 mg/kg/day worked out at 60%.
For `CC(C)(C)c1cc(Nc2nccs2)cc(C(C)(C)CO)c1O` [Compound 3, 2-(1,1-Dimethylethyl)-6-(1,1-dimethyl-2-hydroxyethyl)-4-[N-(2-thiazolyl)amino]phenol] the value was 71%.

For the origin of these results see patent publication EP0414913A1, “p-AMINOPHENOL DERIVATIVE AND PRODUCTION AND APPLICATION THEREOF” (OTSUKA PHARMACEUTICAL FACTORY, INC., priority 1989, dated 1990).
